Values of other authors as cited in PubChem BioAssay AID1259409 (Chemical Carcinogenesis Research Information System (CCRIS), 2018).

Test system: rodent chemically induced tumor inhibition, incidence and multiplicity
Experiment: CCRIS tumor inhibitor studies
Conditions: 10108-64-2, Species: RAT, Strain/Sex: WISTAR/MALE, Dose [Carcinogen]: 30 UMOL/KG IN 0.9% STERILE SALINE ONCE, Promoter: NONE USED

For `CC(=O)[O-].CC(=O)[O-].O.O.[Zn+2]`, the “tumour outcome (control, treated, inhibition, significance)” value (Carcinogen: CADMIUM CHLORIDE, Dose [Inhibitor]: 0.1 MMOL/KG IN 0.9% STERILE SALINE ADMINISTERED IN 3 SEPARATE DOSES AT 6 HR PRIOR TO, CONCURRENTLY WITH AND 18 HR POST C, Route [Inhibitor]: SUBCUTANEOUS, Target Tissue: Type of Lesion: PROSTATE GLAND: ADENOMA) is given as 7/30 (23%), 6/30 (20%), 13%, not calculated, the “tumour outcome (control, treated, inhibition, significance)” value (Carcinogen: CADMIUM CHLORIDE, Dose [Inhibitor]: 0.3 MMOL/KG IN 0.9% STERILE SALINE ADMINISTERED IN 3 SEPARATE DOSES AT 6 HR PRIOR TO, CONCURRENTLY WITH AND 18 HR POST C, Route [Inhibitor]: SUBCUTANEOUS, Target Tissue: Type of Lesion: PROSTATE GLAND: ADENOMA) is given as 7/30 (23%), 5/28 (18%), 22%, not calculated and the “tumour outcome (control, treated, inhibition, significance)” value (Carcinogen: CADMIUM CHLORIDE, Dose [Inhibitor]: 1.0 MMOL/KG IN 0.9% STERILE SALINE ADMINISTERED IN 3 SEPARATE DOSES AT 6 HR PRIOR TO, CONCURRENTLY WITH AND 18 HR POST C, Route [Inhibitor]: SUBCUTANEOUS, Target Tissue: Type of Lesion: PROSTATE GLAND: ADENOMA) is given as 11/26 (42%), 7/28 (25%), 40%, not calculated. The “tumour outcome (control, treated, inhibition, significance)” value (Carcinogen: CADMIUM CHLORIDE, Dose [Inhibitor]: 100 PPM IN DRINKING WATER BEGINNING 2 WK PRIOR TO CARCINOGEN DOSE AND CONTINUING FOR DURATION OF STUDY (STUDY DURATION:, Route [Inhibitor]: ORAL, Target Tissue: Type of Lesion: PROSTATE GLAND: ADENOMA) was 7/30 (23%), 7/30 (23%), 0%, the “tumour outcome (control, treated, inhibition, significance)” value (Carcinogen: CADMIUM(II) CHLORIDE, Dose [Inhibitor]: 0.1 MMOL/KG IN 0.9% STERILE SALINE ADMINISTERED IN 3 SEPARATE DOSES AT 6 HR PRIOR TO CARCINOGEN DOSE, CONCURRENTLY WITH, Route [Inhibitor]: SUBCUTANEOUS, Target Tissue: Type of Lesion: INJECTION SITE: SARCOMA OR EPIDERMAL TUMOR) was 13/30 (43%), 9/30 (30%), 30%, not calculated and the “tumour outcome (control, treated, inhibition, significance)” value (Carcinogen: CADMIUM(II) CHLORIDE, Dose [Inhibitor]: 0.1 MMOL/KG IN 0.9% STERILE SALINE ADMINISTERED IN 3 SEPARATE DOSES AT 6 HR PRIOR TO CARCINOGEN DOSE, CONCURRENTLY WITH, Route [Inhibitor]: SUBCUTANEOUS, Target Tissue: Type of Lesion: TESTES: LEYDIG CELL ADENOMA OR MIXED SERTOLI-LEYDIG CELL TUMOR) was 22/30 (73%), 23/30 (77%), -5%, not calculated. For the same molecule, the “tumour outcome (control, treated, inhibition, significance)” value (Carcinogen: CADMIUM(II) CHLORIDE, Dose [Inhibitor]: 0.3 MMOL/KG IN 0.9% STERILE SALINE ADMINISTERED IN 3 SEPARATE DOSES AT 6 HR PRIOR TO CARCINOGEN DOSE, CONCURRENTLY WITH, Route [Inhibitor]: SUBCUTANEOUS, Target Tissue: Type of Lesion: INJECTION SITE: SARCOMA) was 13/30 (43%), 10/29 (34%), 21%, not calculated, the “tumour outcome (control, treated, inhibition, significance)” value (Carcinogen: CADMIUM(II) CHLORIDE, Dose [Inhibitor]: 0.3 MMOL/KG IN 0.9% STERILE SALINE ADMINISTERED IN 3 SEPARATE DOSES AT 6 HR PRIOR TO CARCINOGEN DOSE, CONCURRENTLY WITH, Route [Inhibitor]: SUBCUTANEOUS, Target Tissue: Type of Lesion: TESTES: LEYDIG CELL ADENOMA) was 22/30 (73%), 14/29 (48%), 34%, not calculated and the “tumour outcome (control, treated, inhibition, significance)” value (Carcinogen: CADMIUM(II) CHLORIDE, Dose [Inhibitor]: 1.0 MMOL/KG IN 0.9% STERILE SALINE ADMINISTERED IN 3 SEPARATE DOSES AT 6 HR PRIOR TO CARCINOGEN DOSE, CONCURRENTLY WITH, Route [Inhibitor]: SUBCUTANEOUS, Target Tissue: Type of Lesion: INJECTION SITE: SARCOMA OR HEMANGIOMA OR EPIDERMAL TUMOR) was 13/30 (43%), 9/29 (31%), 28%, not calculated. The “tumour outcome (control, treated, inhibition, significance)” value (Carcinogen: CADMIUM(II) CHLORIDE, Dose [Inhibitor]: 1.0 MMOL/KG IN 0.9% STERILE SALINE ADMINISTERED IN 3 SEPARATE DOSES AT 6 HR PRIOR TO CARCINOGEN DOSE, CONCURRENTLY WITH, Route [Inhibitor]: SUBCUTANEOUS, Target Tissue: Type of Lesion: INJECTION SITE: SARCOMA) was 3/29 (10%), 1/29 (3%), 70%, not calculated, the “tumour outcome (control, treated, inhibition, significance)” value (Carcinogen: CADMIUM(II) CHLORIDE, Dose [Inhibitor]: 1.0 MMOL/KG IN 0.9% STERILE SALINE ADMINISTERED IN 3 SEPARATE DOSES AT 6 HR PRIOR TO CARCINOGEN DOSE, CONCURRENTLY WITH, Route [Inhibitor]: SUBCUTANEOUS, Target Tissue: Type of Lesion: TESTES: LEYDIG CELL ADENOMA OR SEMINOMA) was 4/29 (14%), 7/30 (23%), -64%, not calculated and the “tumour outcome (control, treated, inhibition, significance)” value (Carcinogen: CADMIUM(II) CHLORIDE, Dose [Inhibitor]: 1.0 MMOL/KG IN 0.9% STERILE SALINE ADMINISTERED IN 3 SEPARATE DOSES AT 6 HR PRIOR TO CARCINOGEN DOSE, CONCURRENTLY WITH, Route [Inhibitor]: SUBCUTANEOUS, Target Tissue: Type of Lesion: TESTES: LEYDIG CELL ADENOMA) was 22/30 (73%), 3/28 (11%), 85%, not calculated. The “tumour outcome (control, treated, inhibition, significance)” value (Carcinogen: CADMIUM(II) CHLORIDE, Dose [Inhibitor]: 100 PPM IN DRINKING WATER BEGINNING 2 WK PRIOR TO CARCINOGEN DOSE AND CONTINUING FOR DURATION OF STUDY (STUDY DURATION:, Route [Inhibitor]: ORAL, Target Tissue: Type of Lesion: INJECTION SITE: SARCOMA AND FIBROMA) was 13/30 (43%), 1/30 (3%), 93%, not calculated and the “tumour outcome (control, treated, inhibition, significance)” value (Carcinogen: CADMIUM(II) CHLORIDE, Dose [Inhibitor]: 100 PPM IN DRINKING WATER BEGINNING 2 WK PRIOR TO CARCINOGEN DOSE AND CONTINUING FOR DURATION OF STUDY (STUDY DURATION:, Route [Inhibitor]: ORAL, Target Tissue: Type of Lesion: TESTES: LEYDIG CELL ADENOMA) was 22/30 (73%), 25/30 (83%), -14%, not calculated.
